From PubChem BioAssay AID328 (DTP/NCI, 2004)
Values joined by “and” are separate entries in the source; they are usually repeats but may differ in a detail not shown here. Identical values can stand only once. Toxic doses and inconclusive results are not listed. How the source made its calls: active means survival T/C of 150% or more; inactive means T/C below 125% in these data.

Tested on: BDF1 mice, P388 leukemia ip, median survival T/C
Experiment: NCI In Vivo Anticancer Drug Screen. Data for tumor model P388 Leukemia (intraperitoneal) in B6D2F1 (BDF1) mice
Conditions: endpoint: median survival time, higher = longer survival
Method in brief: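 Compound-treated tumour-bearing mice were compared with vehicle-treated controls. Survival was recorded, and the value is the treated-group measurement divided by the control-group measurement (T/C).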

[1] = dose: 12.5 mg/kg/injection, schedule: Q04DX003 (ip), vehicle: saline with Tween-80
[2] = dose: 25.0 mg/kg/injection, schedule: Q04DX003 (ip), vehicle: saline
[3] = dose: 100.0 mg/kg/injection, schedule: Q01DX001 (ip), vehicle: Klucel (hydroxypropylcellulose) (HPC)
[4] = dose: 200.0 mg/kg/injection, schedule: Q01DX001 (ip), vehicle: Klucel (hydroxypropylcellulose) (HPC)
[5] = dose: 400.0 mg/kg/injection, schedule: Q01DX001 (ip), vehicle: Klucel (hydroxypropylcellulose) (HPC)
[6] = dose: 3.12 mg/kg/injection, schedule: Q01DX009 (ip), vehicle: saline
[7] = dose: 6.25 mg/kg/injection, schedule: Q01DX009 (ip), vehicle: saline
[8] = dose: 12.5 mg/kg/injection, schedule: Q01DX009 (ip), vehicle: saline

Measured: T/C

COC(=O)C(CSCc1ccccc1)NC(=O)CCNC(=O)OCc1ccccc1 (configuration not stated)
inactive: dose: 1.56 mg/kg/injection, schedule: Q04DX003 (ip), vehicle: Klucel (hydroxypropylcellulose) (HPC) 100 % of control | dose: 3.13 mg/kg/injection, schedule: Q04DX003 (ip), vehicle: Klucel (hydroxypropylcellulose) (HPC) 104 % of control | dose: 6.25 mg/kg/injection, schedule: Q04DX003 (ip), vehicle: Klucel (hydroxypropylcellulose) (HPC) 113 % of control | dose: 12.5 mg/kg/injection, schedule: Q04DX003 (ip), vehicle: Klucel (hydroxypropylcellulose) (HPC) 104 % of control | [1] 93 % of control | dose: 25.0 mg/kg/injection, schedule: Q04DX003 (ip), vehicle: saline with Tween-80 102 % of control | dose: 50.0 mg/kg/injection, schedule: Q04DX003 (ip), vehicle: saline with Tween-80 100 % of control | dose: 100.0 mg/kg/injection, schedule: Q04DX003 (ip), vehicle: saline with Tween-80 107 % of control | dose: 200.0 mg/kg/injection, schedule: Q04DX003 (ip), vehicle: saline with Tween-80 94 % of control | dose: 400.0 mg/kg/injection, schedule: Q04DX003 (ip), vehicle: saline with Tween-80 94 % of control

CCCCN(C)c1ncnc2[nH]ncc12
inactive: dose: 25.0 mg/kg/injection, schedule: Q01DX009 (ip), vehicle: saline 100 % of control | [2] 95 % of control | dose: 50.0 mg/kg/injection, schedule: Q01DX009 (ip), vehicle: saline 109 % of control | dose: 50.0 mg/kg/injection, schedule: Q04DX003 (ip), vehicle: saline 95 % of control | dose: 100.0 mg/kg/injection, schedule: Q04DX003 (ip), vehicle: saline 91 % of control

CN(C)C(=O)c1cccc(COc2ccc([N+](=O)[O-])cc2Cl)c1
inactive: [3] 109 % of control | dose: 132.0 mg/kg/injection, schedule: Q01DX009 (ip), vehicle: saline sonified 91 % of control | [4] 109 % of control | dose: 200.0 mg/kg/injection, schedule: Q01DX009 (ip), vehicle: saline sonified 87 % of control | dose: 300.0 mg/kg/injection, schedule: Q01DX009 (ip), vehicle: saline sonified 87 % of control | [5] 104 % of control

Clc1ccc2c(c1)N(CCCN1CCCC13CCCCC3)c1ccccc1S2
inactive: dose: 1.56 mg/kg/injection, schedule: Q01DX009 (ip), vehicle: saline 87 % of control | dose: 1.56 mg/kg/injection, schedule: Q04DX003 (ip), vehicle: saline with Tween-80 91 % of control | [6] 104 % of control | dose: 3.12 mg/kg/injection, schedule: Q04DX003 (ip), vehicle: saline with Tween-80 91 % of control | [7] 95 % of control | dose: 6.25 mg/kg/injection, schedule: Q04DX003 (ip), vehicle: saline with Tween-80 91 % of control | [8] 95 % of control | [1] 95 % of control

CCCNCCC(O)c1cc(C(F)(F)F)nc2c(C(F)(F)F)cccc12 (configuration not stated)
inactive: dose: 25.0 mg/kg/injection, schedule: Q01DX009 (ip), vehicle: saline with Tween-80 103 % of control | dose: 50.0 mg/kg/injection, schedule: Q01DX009 (ip), vehicle: saline with Tween-80 111 % of control and 124 % of control | dose: 100.0 mg/kg/injection, schedule: Q01DX009 (ip), vehicle: saline with Tween-80 111 % of control

C=CC(OC)OC
inactive: dose: 6.25 mg/kg/injection, schedule: Q04DX003 (ip), vehicle: saline 95 % of control | dose: 12.5 mg/kg/injection, schedule: Q04DX003 (ip), vehicle: saline 100 % of control | [2] 104 % of control

O=C1C=CC(=O)N1CN1CCOCC1
inactive: [6] 120 % of control | [7] 104 % of control | [8] 116 % of control | dose: 18.75 mg/kg/injection, schedule: Q01DX009 (ip), vehicle: saline 111 % of control

CCCCCCCCCCCCN(CCC(=O)O)S(=O)(=O)O
inactive: dose: 25.0 mg/kg/injection, schedule: Q01DX009 (ip), vehicle: Klucel (hydroxypropylcellulose) (HPC) 95 % of control | dose: 50.0 mg/kg/injection, schedule: Q01DX009 (ip), vehicle: Klucel (hydroxypropylcellulose) (HPC) 104 % of control | dose: 75.0 mg/kg/injection, schedule: Q04DX003 (ip), vehicle: Klucel (hydroxypropylcellulose) (HPC) 100 % of control | dose: 100.0 mg/kg/injection, schedule: Q01DX009 (ip), vehicle: Klucel (hydroxypropylcellulose) (HPC) 90 % of control | dose: 150.0 mg/kg/injection, schedule: Q04DX003 (ip), vehicle: Klucel (hydroxypropylcellulose) (HPC) 100 % of control

CC(C(=O)c1ccc(Cl)cc1)C(O)(C(F)(F)F)C(F)(F)F (configuration not stated)
inactive: [3] 100 % of control | [4] 113 % of control | [5] 113 % of control
